Assay results taken from ChEMBL document CHEMBL1201862, “PubChem BioAssay data set” (2004).
Values joined by “and” are separate entries in the source; they are usually repeats but may differ in a detail not shown here. Identical values can stand only once. Counter-ions that a name gives are not always drawn. Each block holds one molecule with its values, some of them ahead of it. Active and inactive are the calls of the source.

Assays:
[1] = target: T1, Kappa-type opioid receptor (Homo sapiens, UniProt P41145); test: KOR agonist analogs, arrestin-GFP redistribution, SAR follow-up, imaging, image-based, set 3 (AID 488833); format: functional
Mu-type opioid receptor [2] = target: T2, Mu-type opioid receptor (Homo sapiens, UniProt P35372); test: SAR Analysis of Agonists of the MOR Receptor using an Image-Based Assay - Set 3. [Related pubchem assays (depositor defined):AID1777, AID1785, AID1786, AID1966, AID2133, AID2136, AID2284, AID2285, AID2352]; format: functional
[3] = target: Delta-type opioid receptor (Homo sapiens, UniProt P41143); test: SAR Analysis of Agonists of the DOR Receptor using an Image-Based Assay - Set 3. [Related pubchem assays (depositor defined):AID1777, AID1786]; format: functional
[4] = target: T1, Kappa-type opioid receptor; test: SAR analysis of small molecule agonists of the kappa opioid receptor via a luminescent beta-arrestin assay - Set 3. [Related pubchem assays (depositor defined):AID1777, AID1785, AID1786, AID1966, AID2133, AID2136, AID2284, AID2500]; format: functional
[5] = target: T3, E3 ubiquitin-protein ligase XIAP (Homo sapiens, UniProt P98170); test: Counter Screen using XIAP-Bir3 for Chemical Antagonists of Bir1/2 domains of IAP-family anti-apoptotic proteins. [Related pubchem assays (depositor defined):AID1018, AID1449, AID1514, AID1638, AID1749, AID1750, AID488957, AID488963]
[6] = target: T3, E3 ubiquitin-protein ligase XIAP; test: XIAP antagonists, biochemical, IAP family, fluorescence polarization (AID 1018); format: functional
[7] = target: T4, Runt-related transcription factor 1/Core-binding factor subunit beta (Homo sapiens, UniProt Q01196+Q13951); test: Confirmation of compounds inhibiting the binding between the RUNX1 Runt domain and CBFb-SMMHC via a fluorescence resonance energy transfer (FRET) assay. [Related pubchem assays (depositor defined):AID1434, AID1438, AID1496, AID1550, AID1645]; format: protein assay
[8] = target: T5, RNA-binding protein pos-1 (Caenorhabditis elegans, UniProt G5EF15); test: inhibitors of POS-1/mex-3 RNA binding, dose response, biochemical, fluorescence polarization (AID 1964);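 further: purified POS-1 fused to maltose binding protein made in E. coli; potency of compounds blocking POS-1 binding to fluorescent RNA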
T5 sequence (G5EF15 whole entry): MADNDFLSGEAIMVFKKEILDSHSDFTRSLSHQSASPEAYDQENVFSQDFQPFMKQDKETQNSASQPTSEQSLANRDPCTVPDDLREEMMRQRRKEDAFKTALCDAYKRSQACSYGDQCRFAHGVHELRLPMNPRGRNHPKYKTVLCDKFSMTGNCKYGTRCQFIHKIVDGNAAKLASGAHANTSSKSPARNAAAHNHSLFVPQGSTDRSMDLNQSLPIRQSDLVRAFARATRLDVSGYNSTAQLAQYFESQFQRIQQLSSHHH

[9] = target: T4, Runt-related transcription factor 1/Core-binding factor subunit beta; test: inhibitors of RUNX1 Runt–CBFb-SMMHC binding, primary screen, biochemical, FRET, Cerulean-Runt, Venus-CBFb-SMMHC, uHTS (AID 1434); format: protein assay;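 further: partner is the CBFb-SMMHC leukemia fusion protein rather than wild-type CBFb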
[10] = target: T6, Zinc finger protein mex-5 (Caenorhabditis elegans, UniProt Q9XUB2); test: MEX-5/TCR-2 RNA interaction inhibitors, dose response, biochemical, C. elegans, fluorescence polarization (AID 1960)
T6 sequence (Q9XUB2 whole entry): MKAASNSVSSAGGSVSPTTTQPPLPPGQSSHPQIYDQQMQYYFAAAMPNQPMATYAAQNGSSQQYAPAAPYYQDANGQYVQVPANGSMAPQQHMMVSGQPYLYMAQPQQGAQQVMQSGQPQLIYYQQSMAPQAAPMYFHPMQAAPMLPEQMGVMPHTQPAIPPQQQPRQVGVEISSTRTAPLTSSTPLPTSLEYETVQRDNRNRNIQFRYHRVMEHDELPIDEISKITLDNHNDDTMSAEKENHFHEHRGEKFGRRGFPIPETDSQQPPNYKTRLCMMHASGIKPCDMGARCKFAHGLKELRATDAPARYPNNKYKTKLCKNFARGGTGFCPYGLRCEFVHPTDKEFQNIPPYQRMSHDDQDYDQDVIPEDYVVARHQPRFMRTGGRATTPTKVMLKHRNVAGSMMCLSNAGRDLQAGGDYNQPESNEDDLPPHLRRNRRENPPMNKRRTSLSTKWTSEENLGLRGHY

Large T antigen = Large T antigen (Simian virus 40, UniProt P03070); format: functional, Betapolyomavirus macacae;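 further: Confirmatory-stage PubChem screen for compounds that inhibit SV40 T antigen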
[11] = target: T4, Runt-related transcription factor 1/Core-binding factor subunit beta; test: inhibitors of RUNX1 Runt–CBFb-SMMHC binding, biochemical, TR-FRET (AID 1438); format: protein assay
[12] = target: T4, Runt-related transcription factor 1/Core-binding factor subunit beta; test: Confirmation of compounds inhibiting the binding between the RUNX1 Runt domain and CBFb-SMMHC via a time resolved fluorescence resonance energy transfer (TR-FRET) assay. [Related pubchem assays (depositor defined):AID1434, AID1438, AID1496, AID1560, AID1645]; format: protein assay
[13] = target: Induced myeloid leukemia cell differentiation protein Mcl-1 (Homo sapiens, UniProt Q07820); format: functional
[14] = target: T7, Mannose-6-phosphate isomerase (Homo sapiens, UniProt P34949); test: human PMI inhibitors, high substrate, primary screen, biochemical, fluorescence intensity, high mannose 6-phosphate (AID 1220)
T7 sequence (P34949 whole entry): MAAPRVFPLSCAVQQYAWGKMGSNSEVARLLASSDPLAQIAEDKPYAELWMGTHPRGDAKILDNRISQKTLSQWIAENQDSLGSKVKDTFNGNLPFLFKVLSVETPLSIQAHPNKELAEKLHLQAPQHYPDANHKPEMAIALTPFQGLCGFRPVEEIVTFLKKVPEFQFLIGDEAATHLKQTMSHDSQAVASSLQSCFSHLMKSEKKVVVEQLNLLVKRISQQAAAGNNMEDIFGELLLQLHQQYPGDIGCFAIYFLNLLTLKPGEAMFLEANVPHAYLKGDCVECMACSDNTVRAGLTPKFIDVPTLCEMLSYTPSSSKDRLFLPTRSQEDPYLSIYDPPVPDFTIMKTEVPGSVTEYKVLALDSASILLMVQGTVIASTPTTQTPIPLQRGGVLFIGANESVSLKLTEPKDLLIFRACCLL

[15] = target: Glucose-6-phosphate 1-dehydrogenase (Homo sapiens, UniProt P11413); test: human G6PD enzyme inhibitors, dose response, selectivity assay for P. falciparum G6PD inhibitor project, biochemical, fluorescence (AID 504792); format: functional
[16] = target: Eukaryotic translation initiation factor 4E (Mus musculus, UniProt P63073); test: eIF4E–eIF4G protein interaction inhibitors, dose response, biochemical, TR-FRET (AID 855); format: functional;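 further: potency for disrupting eIF4E binding to eIF4GI seen as loss of FRET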
[17] = target: DNA dC->dU-editing enzyme APOBEC-3G (Homo sapiens, UniProt Q9HC16); test: Dose Response confirmation of small molecule APOBEC3G DNA Deaminase Inhibitors via a fluorescence-based single-stranded DNA deaminase assay. [Related pubchem assays (depositor defined):AID493012, AID493028]; format: functional
Mu-type opioid receptor [18] = target: T2, Mu-type opioid receptor; format: functional, cell-based
[19] = target: 5-hydroxytryptamine receptor 2A (Mus musculus, UniProt P35363); format: functional, cell-based;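 further: CHO-K1 cells with tagged receptor and beta-arrestin; agonist potency measured as compound-induced activation of the receptor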
[20] = target: T8, DNA repair protein RAD52 homolog (Homo sapiens, UniProt P43351); format: functional, biochemical
T8 sequence (P43351 whole entry): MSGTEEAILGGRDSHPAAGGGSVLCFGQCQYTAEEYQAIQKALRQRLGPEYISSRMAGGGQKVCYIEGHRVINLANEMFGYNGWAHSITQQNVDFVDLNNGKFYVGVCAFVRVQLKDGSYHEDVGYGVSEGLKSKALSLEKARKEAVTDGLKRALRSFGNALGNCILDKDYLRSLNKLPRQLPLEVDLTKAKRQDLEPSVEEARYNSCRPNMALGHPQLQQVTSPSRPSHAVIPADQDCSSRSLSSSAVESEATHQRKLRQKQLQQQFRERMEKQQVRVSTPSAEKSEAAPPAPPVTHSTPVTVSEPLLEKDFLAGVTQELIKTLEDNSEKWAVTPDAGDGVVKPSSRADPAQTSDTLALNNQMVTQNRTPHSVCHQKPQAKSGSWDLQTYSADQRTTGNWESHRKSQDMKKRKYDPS

[21] = THP-1 cell cytotoxicity, dose response, cytotoxicity control for Vif-APOBEC3G degradation inhibitor project, THP-1 cells (AID 1117359); format: functional; details: Human immunodeficiency virus 1, THP-1
[22] = target: Glutathione-S-transferase (Schistosoma japonicum, UniProt Q26513); test: biotin-GST/anti-GST TR-FRET signal inhibitors, dose response, artefact control for Vif-APOBEC3G degradation inhibitor project, biochemical (AID 1117362); format: functional
[23] = target: Sphingosine 1-phosphate receptor 1 (Homo sapiens, UniProt P21453); test: Fluorescence-based counterscreen assay for S1P4 agonists: Cell-based dose response high throughput screening assay to identify agonists of the Sphingosine 1-Phosphate Receptor 1 (S1P1). [Related pubchem assays (depositor defined):AID1509, AID1523, AID1801, AID463107, AID463118, AID463119, AID463122, AID463123, AID463129, AID463225, AID504400, AID504460]; format: functional
[24] = target: Sphingosine 1-phosphate receptor 4 (Homo sapiens, UniProt O95977); test: Fluorescence dose response cell-based high throughput screening assay for agonists of the Sphingosine 1-Phosphate Receptor 4 (S1P4). [Related pubchem assays: 1509 (Primary screen.), 1523 (Confirmation screen in triplicates.)]; format: functional
[25] = target: Peroxisome proliferator-activated receptor gamma/Nuclear receptor coactivator 1 (Homo sapiens, UniProt P37231); test: (§1) TR-FRET dose response biochemical High Throughput Screening assay for agonists of the steroid receptor coactivator 1 (SRC-1) recruitment by the peroxisome proliferator-activated receptor gamma (PPAR gamma): non-selective agonists. [Related pubchem assays (depositor defined):AID1300, AID1808, AID504735, AID631]; format: protein assay
[26] = target: Peroxisome proliferator-activated receptor gamma/Nuclear receptor coactivator 3 (Homo sapiens, UniProt P37231); test: as §1, with “3 (SRC-3)” for “1 (SRC-1)”, “assays: 1301 (Confirmation screen.), 1048 (Primary screen.)]” for “assays (depositor defined):AID1300, AID1808, AID504735, AID631]”; format: functional
[27] = target: Peroxisome proliferator-activated receptor gamma/Nuclear receptor coactivator 2 (Homo sapiens, UniProt P37231); test: TR-FRET dose response biochemical High Throughput Screening assay for agonists of the steroid receptor coactivator 2 (SRC-2) recruitment by the peroxisome proliferator-activated receptor gamma (PPAR gamma): non-selective agonists. [Related pubchem assays: 1297, 1032 ]; format: functional
[28] = target: Protein-arginine deiminase type-4 (Homo sapiens, UniProt Q9UM07); test: human PAD4 inhibitor potency, dose response, biochemical, fluorescence readout (AID 492970)

T2 sequence (P35372 whole entry): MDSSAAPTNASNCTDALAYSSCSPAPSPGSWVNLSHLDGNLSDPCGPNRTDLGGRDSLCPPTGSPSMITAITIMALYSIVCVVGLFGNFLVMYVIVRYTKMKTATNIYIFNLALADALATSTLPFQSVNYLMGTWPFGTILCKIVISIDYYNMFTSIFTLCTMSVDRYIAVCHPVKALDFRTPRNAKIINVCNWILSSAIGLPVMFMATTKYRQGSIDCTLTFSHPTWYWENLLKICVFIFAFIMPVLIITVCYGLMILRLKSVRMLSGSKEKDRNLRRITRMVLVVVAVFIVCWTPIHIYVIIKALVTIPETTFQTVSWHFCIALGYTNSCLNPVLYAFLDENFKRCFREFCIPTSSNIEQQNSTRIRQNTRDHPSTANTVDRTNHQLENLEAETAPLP
Large T antigen, sequence (P03070 whole entry): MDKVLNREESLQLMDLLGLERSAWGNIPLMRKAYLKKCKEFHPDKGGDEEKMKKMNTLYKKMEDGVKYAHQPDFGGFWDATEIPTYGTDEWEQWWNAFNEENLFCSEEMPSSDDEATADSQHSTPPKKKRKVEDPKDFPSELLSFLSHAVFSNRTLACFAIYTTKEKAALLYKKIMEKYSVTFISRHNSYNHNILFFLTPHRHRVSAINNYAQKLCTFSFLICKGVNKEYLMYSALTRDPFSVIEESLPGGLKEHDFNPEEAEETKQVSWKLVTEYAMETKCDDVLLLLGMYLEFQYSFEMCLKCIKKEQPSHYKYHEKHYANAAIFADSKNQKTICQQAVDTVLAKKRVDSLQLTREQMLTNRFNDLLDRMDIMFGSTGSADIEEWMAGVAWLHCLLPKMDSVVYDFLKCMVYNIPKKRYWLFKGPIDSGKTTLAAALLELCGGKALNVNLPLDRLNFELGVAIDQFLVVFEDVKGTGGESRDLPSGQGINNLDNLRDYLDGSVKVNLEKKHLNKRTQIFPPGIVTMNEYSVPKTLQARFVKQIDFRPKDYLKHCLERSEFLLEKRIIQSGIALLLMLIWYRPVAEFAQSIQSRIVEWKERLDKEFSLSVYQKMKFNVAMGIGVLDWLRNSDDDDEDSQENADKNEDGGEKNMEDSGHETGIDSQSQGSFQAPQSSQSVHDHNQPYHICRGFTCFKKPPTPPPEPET
T4 sequence (Q01196 whole entry, the tested form may be a part): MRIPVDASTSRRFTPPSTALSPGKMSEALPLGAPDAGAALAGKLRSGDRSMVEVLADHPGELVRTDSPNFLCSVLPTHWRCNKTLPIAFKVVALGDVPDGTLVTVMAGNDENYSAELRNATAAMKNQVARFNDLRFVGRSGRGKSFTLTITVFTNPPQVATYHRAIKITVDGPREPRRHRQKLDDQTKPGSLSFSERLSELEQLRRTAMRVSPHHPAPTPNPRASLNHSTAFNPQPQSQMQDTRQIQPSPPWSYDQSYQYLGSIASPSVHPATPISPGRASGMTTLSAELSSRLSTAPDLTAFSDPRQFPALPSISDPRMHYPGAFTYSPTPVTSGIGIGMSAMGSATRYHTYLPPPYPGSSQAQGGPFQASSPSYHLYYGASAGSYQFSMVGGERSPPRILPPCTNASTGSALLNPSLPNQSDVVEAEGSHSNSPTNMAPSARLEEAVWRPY
T4 sequence (Q13951 whole entry, the tested form may be a part): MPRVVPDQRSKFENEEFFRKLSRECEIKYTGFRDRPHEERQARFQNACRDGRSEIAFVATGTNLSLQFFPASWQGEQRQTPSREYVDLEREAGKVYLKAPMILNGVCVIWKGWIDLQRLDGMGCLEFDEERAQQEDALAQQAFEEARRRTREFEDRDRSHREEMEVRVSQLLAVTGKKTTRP
T1 sequence (P41145 whole entry): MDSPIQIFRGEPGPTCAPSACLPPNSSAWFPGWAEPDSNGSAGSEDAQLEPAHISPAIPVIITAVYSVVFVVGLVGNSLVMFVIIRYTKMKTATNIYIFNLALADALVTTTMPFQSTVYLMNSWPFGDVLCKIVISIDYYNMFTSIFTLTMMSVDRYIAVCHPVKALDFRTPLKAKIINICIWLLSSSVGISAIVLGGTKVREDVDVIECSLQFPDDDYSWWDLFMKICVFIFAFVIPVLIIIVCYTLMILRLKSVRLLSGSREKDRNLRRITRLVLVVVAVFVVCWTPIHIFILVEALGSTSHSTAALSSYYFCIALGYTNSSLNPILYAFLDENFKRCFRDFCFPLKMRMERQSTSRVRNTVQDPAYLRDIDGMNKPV
5-hydroxytryptamine receptor 2A, sequence (P35363 whole entry): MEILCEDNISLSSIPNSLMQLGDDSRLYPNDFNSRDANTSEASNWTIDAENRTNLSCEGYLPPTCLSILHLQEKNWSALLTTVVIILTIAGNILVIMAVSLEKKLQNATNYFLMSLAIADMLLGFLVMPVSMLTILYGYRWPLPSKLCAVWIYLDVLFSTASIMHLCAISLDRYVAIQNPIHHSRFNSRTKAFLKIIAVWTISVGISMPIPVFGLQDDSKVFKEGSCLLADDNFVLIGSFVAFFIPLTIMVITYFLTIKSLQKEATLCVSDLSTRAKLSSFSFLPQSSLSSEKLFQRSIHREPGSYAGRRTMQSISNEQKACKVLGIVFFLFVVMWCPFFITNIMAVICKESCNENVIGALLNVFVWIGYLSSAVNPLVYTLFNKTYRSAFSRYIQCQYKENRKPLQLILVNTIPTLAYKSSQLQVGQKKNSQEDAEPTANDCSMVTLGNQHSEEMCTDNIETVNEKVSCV
T3 sequence (P98170 whole entry): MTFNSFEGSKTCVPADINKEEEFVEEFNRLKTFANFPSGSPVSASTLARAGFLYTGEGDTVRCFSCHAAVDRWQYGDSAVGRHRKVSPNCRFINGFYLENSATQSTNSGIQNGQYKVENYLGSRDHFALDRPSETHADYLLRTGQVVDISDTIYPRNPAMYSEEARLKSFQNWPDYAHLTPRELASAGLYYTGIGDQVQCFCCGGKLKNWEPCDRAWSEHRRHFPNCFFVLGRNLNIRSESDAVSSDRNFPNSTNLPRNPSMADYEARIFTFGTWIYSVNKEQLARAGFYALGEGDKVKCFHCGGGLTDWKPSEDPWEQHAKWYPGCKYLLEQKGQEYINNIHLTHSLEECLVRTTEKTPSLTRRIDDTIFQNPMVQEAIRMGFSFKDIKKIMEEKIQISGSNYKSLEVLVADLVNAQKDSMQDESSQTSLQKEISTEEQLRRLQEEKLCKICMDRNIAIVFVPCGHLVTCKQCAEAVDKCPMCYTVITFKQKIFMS
Sphingosine 1-phosphate receptor 1, sequence (P21453 whole entry): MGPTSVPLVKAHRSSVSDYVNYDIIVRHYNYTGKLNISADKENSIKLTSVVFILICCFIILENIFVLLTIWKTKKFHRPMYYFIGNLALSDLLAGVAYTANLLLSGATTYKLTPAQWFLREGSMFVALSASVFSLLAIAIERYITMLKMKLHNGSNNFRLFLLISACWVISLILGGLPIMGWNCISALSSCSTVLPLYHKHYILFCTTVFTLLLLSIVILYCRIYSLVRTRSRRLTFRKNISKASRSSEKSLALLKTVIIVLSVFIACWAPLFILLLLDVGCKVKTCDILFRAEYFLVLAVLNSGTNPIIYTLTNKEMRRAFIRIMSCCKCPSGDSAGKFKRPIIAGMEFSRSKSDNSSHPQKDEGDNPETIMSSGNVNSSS
DNA dC->dU-editing enzyme APOBEC-3G, sequence (Q9HC16 whole entry): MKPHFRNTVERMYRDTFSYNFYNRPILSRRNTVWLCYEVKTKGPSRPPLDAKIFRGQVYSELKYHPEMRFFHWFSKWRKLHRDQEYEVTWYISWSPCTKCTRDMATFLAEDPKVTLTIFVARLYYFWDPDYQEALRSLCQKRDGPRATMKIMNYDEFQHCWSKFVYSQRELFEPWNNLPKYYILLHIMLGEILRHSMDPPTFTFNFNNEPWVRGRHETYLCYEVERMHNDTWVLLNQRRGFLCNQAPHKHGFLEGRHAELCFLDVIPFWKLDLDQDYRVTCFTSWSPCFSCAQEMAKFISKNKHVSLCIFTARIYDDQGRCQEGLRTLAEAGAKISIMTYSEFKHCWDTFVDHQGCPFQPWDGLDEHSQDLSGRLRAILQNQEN
Glutathione-S-transferase, sequence (Q26513 whole entry): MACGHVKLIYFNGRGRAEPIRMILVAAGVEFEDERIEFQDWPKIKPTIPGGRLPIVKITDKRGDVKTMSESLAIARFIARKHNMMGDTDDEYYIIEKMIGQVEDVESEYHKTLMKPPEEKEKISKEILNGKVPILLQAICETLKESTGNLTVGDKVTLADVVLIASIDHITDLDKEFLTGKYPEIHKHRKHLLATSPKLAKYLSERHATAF
Eukaryotic translation initiation factor 4E, sequence (P63073 whole entry): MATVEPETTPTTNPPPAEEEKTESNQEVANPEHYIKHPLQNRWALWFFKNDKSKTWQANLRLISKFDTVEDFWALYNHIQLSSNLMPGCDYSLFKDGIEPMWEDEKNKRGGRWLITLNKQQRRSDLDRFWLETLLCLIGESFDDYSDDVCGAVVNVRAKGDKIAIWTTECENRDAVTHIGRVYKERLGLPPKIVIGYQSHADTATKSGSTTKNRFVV
Induced myeloid leukemia cell differentiation protein Mcl-1, sequence (Q07820 whole entry): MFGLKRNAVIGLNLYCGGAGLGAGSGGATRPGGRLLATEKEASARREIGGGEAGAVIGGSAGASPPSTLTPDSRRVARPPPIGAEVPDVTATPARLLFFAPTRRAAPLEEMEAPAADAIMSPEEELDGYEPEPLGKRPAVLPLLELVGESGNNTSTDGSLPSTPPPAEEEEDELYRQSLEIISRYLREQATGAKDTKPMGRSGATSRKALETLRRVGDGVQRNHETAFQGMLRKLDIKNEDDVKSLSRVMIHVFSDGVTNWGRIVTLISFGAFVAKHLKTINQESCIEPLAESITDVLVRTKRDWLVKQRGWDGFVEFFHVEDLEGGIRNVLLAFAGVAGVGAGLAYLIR

EC50 [1]: > 32 µM (inactive) | EC50 (Mu-type opioid receptor [2]): > 32 µM (inactive) | EC50 [3]: > 64 µM (inactive) | EC50 [4]: > 20 µM (inactive)
SMILES: Fc1cccc(F)c1CSc1nnc(-c2ccccn2)n1Cc1ccco1

IC50 [5]: > 100 µM (inactive) | IC50 [6]: > 100 µM (not active)
SMILES: COc1ccc(NC(=O)Cc2ccc(C)cc2)c([N+](=O)[O-])c1

EC50 [25]: > 79.4 µM (inactive) | EC50 [26]: > 79.4 µM (not active) | EC50 [27]: 121 µM (not active)
SMILES: CCOc1ccc(CCNC(=O)CSc2cc(=O)n(CC)c3ccccc23)cc1OCC

IC50 [28]: > 100 µM (inactive)
SMILES: O=C1NCC2=C1C(c1ccccc1)Nc1ccccc1N2 (stereo not given)

The remaining lines, values behind:

SMILES: CN1CCc2cccc3c2[C@H]1Cc1ccc(O)c(O)c1-3 [APOMORPHINE HYDROCHLORIDE]
IC50 [7]: 13.4 µM (active) | EC50 [8]: 16.9 µM (inconclusive) | IC50 [9]: 9.66 µM (active) | EC50 [10]: 4.42 µM (active) | IC50 (Large T antigen): > 100 µM (active) and 15.3 µM (active) | IC50 [11]: 9.81 µM (active) | IC50 [12]: 18.9 µM (active) | IC50 [13]: 4.38 µM (active) | IC50 [14]: 14.6 µM (active) | IC50 [15]: 34.6 µM (inactive) | IC50 [16]: > 64 µM (inactive) | IC50 [17]: 26.2 µM (active) | EC50 (Mu-type opioid receptor [18]): 92.5 µM (inactive) and 92.4 µM (inactive) | EC50 [19]: 6.41 nM (active) and 8.15 nM (active) | AC50 [20]: 7.1 µM (active) | CC50 [21]: 16.9 µM (active) | IC50 [22]: 74.8 µM (active)

SMILES: C/C(=N/NC(N)=S)c1cc2ccc(O)cc2oc1=O
EC50 [23]: 93.5 µM (inactive) | IC50 (Large T antigen): 27.7 µM (active) | EC50 [24]: 11.8 µM (not active)
